Results on 15 compounds are retold here after patent US10479780B2, “Aminopyrazole derivatives” (Chugai Seiyaku Kabushiki Kaisha, priority 2015, dated 2019).

Holding throughout (type): biochemical
The target of one test is T1, human Yes1 enzyme (Homo sapiens, UniProt P07947).
T1 construct: made in house
Put plainly: Yes1 enzyme inhibitory activity (time-resolved fluorometry, biotinylated peptide phosphorylation). The note with it: read-out: YES_IC50. In short, it runs like this: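 Inhibition was expressed against a compound-free control to give IC50, using TR-FRET read-out (Eu-cryptate anti-pTyr antibody, streptavidin-XL665).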

Another test deals with T2, human Lck enzyme (Homo sapiens, UniProt P06239).
T2 construct: purchased Carna Biosciences, Inc. 08-170
The test is described as follows: Lck enzyme inhibitory activity (time-resolved fluorometry, biotinylated peptide phosphorylation). The following applies: read-out: LCK_IC50. The method, boiled down:
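Readout pairs a europium cryptate-labelled anti-phosphotyrosine antibody with XL665-streptavidin, measured by time-resolved fluorescence. IC50 derived from percent inhibition against untreated controls.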

In the next test the target is T3, human Src enzyme (Homo sapiens, UniProt P12931).
T3 construct: purchased Carna Biosciences, Inc. 08-173
The test is described as follows: Src enzyme inhibitory activity (time-resolved fluorometry, biotinylated peptide phosphorylation). The note with it: read-out: SRC_IC50. In short, it runs like this:
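Compounds were tested for blocking tyrosine phosphorylation of a biotinylated peptide substrate by recombinant human Src. Phosphorylated product was quantified by time-resolved fluorometry using europium cryptate and XL665 conjugates, and IC50 was calculated against the compound-free control.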

SMILES strings stand for the structures.

T2 sequence (P06239 whole entry): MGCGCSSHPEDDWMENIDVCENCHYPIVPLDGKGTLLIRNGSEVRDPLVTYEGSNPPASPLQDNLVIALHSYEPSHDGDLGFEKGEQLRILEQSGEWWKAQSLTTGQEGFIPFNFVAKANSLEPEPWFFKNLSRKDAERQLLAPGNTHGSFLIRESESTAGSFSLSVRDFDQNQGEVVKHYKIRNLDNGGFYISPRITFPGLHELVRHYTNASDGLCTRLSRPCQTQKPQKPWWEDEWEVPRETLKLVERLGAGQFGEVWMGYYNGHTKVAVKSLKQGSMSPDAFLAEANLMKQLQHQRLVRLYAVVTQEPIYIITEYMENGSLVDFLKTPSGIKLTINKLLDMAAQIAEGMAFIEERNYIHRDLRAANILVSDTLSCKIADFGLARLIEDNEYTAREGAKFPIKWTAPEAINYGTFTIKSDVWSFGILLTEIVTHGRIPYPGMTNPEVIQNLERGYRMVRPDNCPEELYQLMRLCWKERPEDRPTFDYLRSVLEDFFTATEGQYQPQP
T3 sequence (P12931 whole entry): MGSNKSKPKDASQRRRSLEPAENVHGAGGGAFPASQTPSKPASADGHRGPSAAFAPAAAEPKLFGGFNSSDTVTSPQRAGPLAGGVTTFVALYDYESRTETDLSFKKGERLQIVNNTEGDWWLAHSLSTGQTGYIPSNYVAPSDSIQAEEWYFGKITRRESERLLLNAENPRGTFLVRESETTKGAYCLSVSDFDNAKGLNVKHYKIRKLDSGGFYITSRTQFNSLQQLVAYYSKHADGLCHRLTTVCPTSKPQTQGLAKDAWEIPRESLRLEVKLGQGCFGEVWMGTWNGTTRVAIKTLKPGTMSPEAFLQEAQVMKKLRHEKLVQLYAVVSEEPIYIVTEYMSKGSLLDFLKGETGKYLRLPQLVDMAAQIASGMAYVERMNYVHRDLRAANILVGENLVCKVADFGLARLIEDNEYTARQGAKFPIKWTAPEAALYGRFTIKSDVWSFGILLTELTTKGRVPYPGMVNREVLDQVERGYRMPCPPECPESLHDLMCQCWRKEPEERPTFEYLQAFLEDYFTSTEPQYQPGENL
T1 sequence (P07947 whole entry): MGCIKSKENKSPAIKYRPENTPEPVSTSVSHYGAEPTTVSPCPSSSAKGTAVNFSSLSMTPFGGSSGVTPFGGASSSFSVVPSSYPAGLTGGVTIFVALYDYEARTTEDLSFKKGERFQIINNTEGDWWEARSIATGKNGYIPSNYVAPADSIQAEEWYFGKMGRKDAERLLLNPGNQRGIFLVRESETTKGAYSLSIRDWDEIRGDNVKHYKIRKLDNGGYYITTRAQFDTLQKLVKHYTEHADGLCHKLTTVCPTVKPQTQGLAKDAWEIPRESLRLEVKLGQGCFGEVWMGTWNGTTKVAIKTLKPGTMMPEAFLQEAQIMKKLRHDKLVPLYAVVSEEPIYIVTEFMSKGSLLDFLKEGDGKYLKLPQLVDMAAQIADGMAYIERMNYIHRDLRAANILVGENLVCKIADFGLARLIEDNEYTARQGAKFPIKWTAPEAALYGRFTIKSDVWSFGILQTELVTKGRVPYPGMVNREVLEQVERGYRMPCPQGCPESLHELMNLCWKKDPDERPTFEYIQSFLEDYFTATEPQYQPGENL

In the case of `Cc1cc(Oc2c(F)cccc2F)ncc1-n1ncc(C(=O)c2cc3cc(C(C)C)c(NS(=O)(=O)N4C5CCC4COC5)cc3[nH]2)c1N` [Example 5-1-303, N-[2-[5-amino-1-[6-(2,6-difluorophenoxy)-4-methylpyridin-3-yl]pyrazole-4-carbonyl]-5-propan-2-yl-1H-indol-6-yl]-3-oxa-8-azabicyclo [3.2.1]octane-8-sulfonamide], the IC50 at human Yes1 enzyme worked out at 27 nM; on human Lck enzyme, 320 nM; on human Src enzyme it was 1500 nM.

Consider `Cc1cc(Oc2c(F)cccc2F)ncc1-n1ncc(C(=O)c2cc3cc(C(C)C)c(NS(=O)(=O)C4CCCCC4)cc3[nH]2)c1N` [Example 5-1-304, N-[2-[5-amino-1-[6-(2,6-difluorophenoxy)-4-methylpyridin-3-yl]pyrazole-4-carbonyl]-5-propan-2-yl-1H-indol-6-yl] cyclohexanesulfonamide], for which the IC50 worked out at 32 nM at human Yes1 enzyme, 400 nM at human Lck enzyme and 1300 nM at human Src enzyme.

As for `Cc1cc(Oc2c(F)cccc2F)ncc1-n1ncc(C(=O)c2cc3cc(C(C)C)c(NS(=O)(=O)CCCF)cc3[nH]2)c1N` [Example 5-1-305, N-[2-[5-amino-1-[6-(2,6-difluorophenoxy)-4-methylpyridin-3-yl]pyrazole-4-carbonyl]-5-propan-2-yl-1H-indol-6-yl]-3-fluoropropane-1-sulfonamide], the IC50 on human Yes1 enzyme came to 9.8 nM; on human Lck enzyme, 84 nM; at human Src enzyme it was 380 nM.

For `Cc1cc(Oc2c(F)cccc2F)ncc1-n1ncc(C(=O)c2cc3cc(C(C)C)c(NS(=O)(=O)C4CCCC4)cc3[nH]2)c1N` [Example 5-1-306, N-[2-[5-amino-1-[6-(2,6-difluorophenoxy)-4-methylpyridin-3-yl]pyrazole-4-carbonyl]-5-propan-2-yl-1H-indol-6-yl] cyclopentanesulfonamide], the IC50 on human Yes1 enzyme came to 23 nM; on human Lck enzyme, 150 nM; at human Src enzyme, 630 nM.

Take `Cc1cc(-n2ncc(C(=O)c3cc4cc(OC5CCN(C6CCCC6)CC5)c(-c5ccccc5F)cc4[nH]3)c2N)ccc1Oc1ccccc1F` [Example 5-1-308, [5-amino-1-[4-(2-fluorophenoxy)-3-methylphenyl]pyrazol-4-yl]-[5-(1-cyclopentylpiperidin-4-yl)oxy-6-(2-fluorophenyl)-1H-indol-2-yl]methanone]: the IC50 on human Yes1 enzyme turned out to be 7.7 nM; on human Lck enzyme it was 200 nM; at human Src enzyme, 1300 nM.

For the compound `Cc1cc(-n2ncc(C(=O)c3cc4cc(OC5CCN(C6CS(=O)(=O)C6)CC5)c(-c5ccccc5F)cc4[nH]3)c2N)ccc1Oc1ccccc1F` [Example 5-1-309, [5-amino-1-[4-(2-fluorophenoxy)-3-methylphenyl]pyrazol-4-yl]-[5-[1-(1,1-dioxothietan-3-yl)piperidin-4-yl]oxy-6-(2-fluorophenyl)-1H-indol-2-yl]methanone], the values for the IC50 on human Yes1 enzyme, on human Lck enzyme and on human Src enzyme were 12 nM, 410 nM and 3600 nM, respectively.

With `Cc1cc(Oc2c(F)cccc2F)ncc1-n1ncc(C(=O)c2cc3cc(OC4CCN(C5CCCC5)CC4)c(-c4ccccc4F)cc3[nH]2)c1N` [Example 5-1-310, [5-amino-1-[6-(2,6-difluorophenoxy)-4-methylpyridin-3-yl]pyrazol-4-yl]-[5-(1-cyclopentylpiperidin-4-yl)oxy-6-(2-fluorophenyl)-1H-indol-2-yl]methanone], the IC50 stood at 3.4 nM at human Yes1 enzyme, 22 nM on human Lck enzyme and 38 nM on human Src enzyme.

On to `Cc1cc(Oc2c(F)cccc2F)ncc1-n1ncc(C(=O)c2cc3cc(OC4CCN(C5CS(=O)(=O)C5)CC4)c(-c4ccccc4F)cc3[nH]2)c1N` [Example 5-1-311, [5-amino-1-[6-(2,6-difluorophenoxy)-4-methylpyridin-3-yl]pyrazol-4-yl]-[5-[1-(1,1-dioxothietan-3-yl)piperidin-4-yl]oxy-6-(2-fluorophenyl)-1H-indol-2-yl]methanone], for which the IC50 on human Yes1 enzyme was determined as 3.6 nM; on human Lck enzyme it was 15 nM; on human Src enzyme, 48 nM.

For the compound `Cc1cc(Oc2c(F)cccc2F)ncc1-n1ncc(C(=O)c2cc3cc(F)c(N4C(=O)NC5(CCC5)C4=O)cc3[nH]2)c1N` [Example 5-1-312, 7-[2-[5-amino-1-[6-(2,6-difluorophenoxy)-4-methylpyridin-3-yl]pyrazole-4-carbonyl]-5-fluoro-1H-indol-6-yl]-5,7-diazaspiro[3.4]octane-6,8-dione], the IC50 at human Yes1 enzyme was 3.5 nM; on human Lck enzyme, 10 nM; at human Src enzyme, 160 nM.

`Cc1cc2cc(C(=O)c3cnn(-c4cnc(Oc5c(F)cccc5F)cc4C)c3N)[nH]c2cc1N1CC(C)(C)NS1(=O)=O` [Example 5-1-313, [5-amino-1-[6-(2,6-difluorophenoxy)-4-methylpyridin-3-yl]pyrazol-4-yl]-[6-(4,4-dimethyl-1,1-dioxo-1,2,5-thiadiazolidin-2-yl)-5-methyl-1H-indol-2-yl]methanone]: the IC50 worked out at 2.8 nM on human Yes1 enzyme, 19 nM at human Lck enzyme and 73 nM on human Src enzyme.

In the case of `Cc1cc2cc(C(=O)c3cnn(-c4cnc(Oc5c(F)cccc5F)cc4C)c3N)[nH]c2cc1NS(=O)(=O)C1CCCCC1` [Example 5-1-314, N-[2-[5-amino-1-[6-(2,6-difluorophenoxy)-4-methylpyridin-3-yl]pyrazole-4-carbonyl]-5-methyl-1H-indol-6-yl]cyclohexanesulfonamide], the figures for the IC50 at human Yes1 enzyme, on human Lck enzyme and on human Src enzyme were 9.6 nM, 150 nM and 480 nM, respectively.

As to `Cc1cc(Oc2c(F)cccc2F)ncc1-n1ncc(C(=O)c2cc3cc(OCC(F)F)c(NS(=O)(=O)C4CCCCC4)cc3[nH]2)c1N` [Example 5-1-315, N-[2-[5-amino-1-[6-(2,6-difluorophenoxy)-4-methylpyridin-3-yl]pyrazole-4-carbonyl]-5-(2,2-difluoroethoxy)-1H-indol-6-yl] cyclohexanesulfonamide], the IC50 at human Yes1 enzyme turned out to be 8.1 nM; at human Lck enzyme, 130 nM; on human Src enzyme, 330 nM.

Turning to `Cc1cc2cc(C(=O)c3cnn(-c4cnc(Oc5c(F)cccc5F)cc4C)c3N)[nH]c2cc1N1C(=O)NC2(CCCCC2)C1=O` [Example 5-1-316, 3-[2-[5-amino-1-[6-(2,6-difluorophenoxy)-4-methylpyridin-3-yl]pyrazole-4-carbonyl]-5-methyl-1H-indol-6-yl]-1,3-diazaspiro[4.5] decane-2,4-dione], the IC50 was determined as 6.2 nM on human Yes1 enzyme, 29 nM on human Lck enzyme and 170 nM at human Src enzyme.

Turning to `Cc1cc2cc(C(=O)c3cnn(-c4cnc(Oc5c(F)cccc5F)cc4C)c3N)[nH]c2cc1NS(=O)(=O)C1CCCC1` [Example 5-1-317, N-[2-[5-amino-1-[6-(2,6-difluorophenoxy)-4-methylpyridin-3-yl]pyrazole-4-carbonyl]-5-methyl-1H-indol-6-yl]cyclopentanesulfonamide], the results for the IC50 on human Yes1 enzyme, on human Lck enzyme and at human Src enzyme were 16 nM, 110 nM and 500 nM, respectively.

Turning to `Cc1cc(Oc2c(F)cccc2F)ncc1-n1ncc(C(=O)c2cc3cc(OCC(F)F)c(NS(=O)(=O)C4CCCC4)cc3[nH]2)c1N` [Example 5-1-318, N-[2-[5-amino-1-[6-(2,6-difluorophenoxy)-4-methylpyridin-3-yl]pyrazole-4-carbonyl]-5-(2,2-difluoroethoxy)-1H-indol-6-yl] cyclopentanesulfonamide], the figures for the IC50 on human Yes1 enzyme, on human Lck enzyme and at human Src enzyme were 10 nM, 120 nM and 350 nM, respectively.
